This is an account of results in US5939437A, “CCK and gastrin receptor ligands” (James Black Foundation Limited, priority 1994, dated 1999).

For one assay, the target named is T1, CCKB (Mus musculus, UniProt P56481).
T1 construct: The cortex was dissected, weighed and homogenised in 40 ml ice-cold buffer; from tissue; host or cells: cerebral cortex membranes of male CD1 mice (Charles River)
T1 sequence (P56481 1-453): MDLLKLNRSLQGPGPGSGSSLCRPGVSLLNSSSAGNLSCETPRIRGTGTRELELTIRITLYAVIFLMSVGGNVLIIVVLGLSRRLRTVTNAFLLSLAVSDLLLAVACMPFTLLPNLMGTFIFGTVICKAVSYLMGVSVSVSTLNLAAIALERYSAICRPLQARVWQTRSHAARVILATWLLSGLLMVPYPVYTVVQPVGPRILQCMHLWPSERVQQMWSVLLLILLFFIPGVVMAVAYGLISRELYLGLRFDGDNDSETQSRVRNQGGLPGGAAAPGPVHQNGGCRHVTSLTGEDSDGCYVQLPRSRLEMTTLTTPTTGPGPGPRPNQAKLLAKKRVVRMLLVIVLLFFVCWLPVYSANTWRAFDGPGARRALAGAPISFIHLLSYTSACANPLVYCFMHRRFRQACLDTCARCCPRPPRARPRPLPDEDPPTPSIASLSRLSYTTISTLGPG
Nature of the assay: radioligand binding assay at the CCKB (CCK8 [sic]) receptor in mouse cortical membranes. The following applies: [125I]-CCK8S 200 pM, 150 min at 21±3° C.; for Ki: read-out: CCKB pKi (converted). As to the method:
The compounds of the examples were tested for binding at the CCK8 receptor in mouse cortical membranes by means of a radioligand binding assay. The procedure was as follows: The whole brains from male mice (CD1 22-25 g; Charles River) were removed and placed in ice-cold buffer (pH7.2@21±3° C.) of the following composition (mM); 10 HEPES, 130 NaCl, 4.7 KCl, 5 MgCl2, 1 EDTA and containing 0.25 g.1^-1 bacitracin. The cortex was dissected, weighed and homogenised in 40 ml ice-cold buffer using a Teflon-in-glass homogeniser. The homogenate was centrifuged at 39,800 g for 20 min at 4° C., the supernatant discarded and the pellet resuspended by homogenisation in fresh buffer. The homogenate was recentrifuged (39,800 g; 20 min@4° C.) and the final pellet was resuspended in HEPES buffer to give a tissue concentration of 2 mg.ml^-1 (original wet weight). The membranes ([…]) were incubated for 150 min at 21±3° C. in a final volume of 0.5 ml with HEPES buffer containing [^25 I]-CCK8S (0.05 ml; 200 pM NEN 2200 Ci.mmol^-1) and competing compound. Total and non-specific binding of [^125 I]-CCK8S were defined using 0.05 ml of buffer and 0.05 ml of […] L-365,260, respectively. The assay was terminated by rapid filtration through pre-soaked Whatman GF/B 35 filters using a Brandell Cell harvester. The filters were washed (3×3 ml) with ice-cold 5 mM Tris-HCl (pH7.4@4° C.) and bound radioactivity determined by counting (1 min.) in a gamma-counter.

In another assay the target is T2, Gastrin (Rattus norvegicus, UniProt P30553).
T2 construct: The stomach was excised and flushed with ca. 1 ml unbuffered physiological saline solution; from tissue; host or cells: isolated whole stomach of immature rats (33-50 g, ca. 21 days old)
T2 sequence (P30553 1-452): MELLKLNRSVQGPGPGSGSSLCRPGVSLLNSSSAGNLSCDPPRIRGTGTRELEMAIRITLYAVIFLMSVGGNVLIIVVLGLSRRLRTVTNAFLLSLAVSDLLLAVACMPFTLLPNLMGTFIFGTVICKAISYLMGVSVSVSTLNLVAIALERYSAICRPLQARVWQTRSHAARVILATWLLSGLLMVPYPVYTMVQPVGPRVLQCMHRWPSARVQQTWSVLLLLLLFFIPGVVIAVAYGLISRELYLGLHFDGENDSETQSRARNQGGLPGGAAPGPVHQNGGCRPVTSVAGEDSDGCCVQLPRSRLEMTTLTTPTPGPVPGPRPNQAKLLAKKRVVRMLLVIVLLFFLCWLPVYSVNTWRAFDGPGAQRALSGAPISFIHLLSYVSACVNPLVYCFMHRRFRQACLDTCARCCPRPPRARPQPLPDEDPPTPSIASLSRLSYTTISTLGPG
Nature of the assay: gastrin antagonist activity in an immature rat stomach assay (pentagastrin-stimulated acid secretion, isolated stomach). Particulars: cumulative pentagastrin dose-response curves, 60 min after drug; for Kb: read-out: Gastrin pKB (converted). As to the method:
The compounds of the examples were also tested for gastrin antagonist activity in an immature rat stomach assay. The procedure was follows:
The oesophagus of immature rats (33-50 g, ca. 21 days old) was ligated at the level of the cardiac sphincter and the duodenal sphincter was cannulated. The stomach was excised and flushed with ca. 1 ml unbuffered physiological saline solution. The fundus was punctured and cannulated. A further 4-5 ml of unbuffered solution was flushed through the stomach to ensure the preparation was not leaking. The stomach was lowered into a jacketed organ bath containing 40 ml of buffered solution containing 3×10^-8 M5methylfurmethide, maintained at 37° and gassed vigorously with 95% O2 /5% CO2. The stomach was continuously perfused at a rate of 1 ml min^-1 with unbuffered solution gassed with 100% O2 with the perfusate passing over an internally referenced pH-electrode fixed 12 cm above the stomach.
After 120 min of stabilisation the drugs were added directly to the serosal solution in the organ bath and after a further 60 min cumulative pentagastrin dose-response curves were started. Changes in acid secretion were monitored and the curves analysed according to Black et. al., Br. J. Pharmacol., 1985, 86, 581.

In the next assay the target is T3, CCKA (Cavia porcellus, UniProt Q63931).
T3 construct: The pancreatata were homogenised in 40 ml ice-cold HEPES buffer; from tissue; host or cells: pancreas membranes of male Dunkin Hartley guinea-pigs
T3 sequence (Q63931 1-430): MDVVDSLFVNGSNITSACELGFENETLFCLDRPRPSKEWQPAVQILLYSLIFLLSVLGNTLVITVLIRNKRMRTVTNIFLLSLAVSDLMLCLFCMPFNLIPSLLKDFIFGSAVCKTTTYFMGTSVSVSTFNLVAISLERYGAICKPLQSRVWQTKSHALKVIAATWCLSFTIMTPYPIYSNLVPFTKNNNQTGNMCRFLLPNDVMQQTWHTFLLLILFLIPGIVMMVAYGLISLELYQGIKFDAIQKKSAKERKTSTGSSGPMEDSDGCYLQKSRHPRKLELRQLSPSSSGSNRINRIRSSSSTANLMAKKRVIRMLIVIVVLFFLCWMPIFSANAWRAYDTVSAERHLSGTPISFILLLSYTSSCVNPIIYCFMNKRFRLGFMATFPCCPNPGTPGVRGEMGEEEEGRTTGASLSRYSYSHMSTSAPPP
Nature of the assay: CCKA binding assay (guinea-pig pancreas membranes). The following applies: [125I]-CCK8(S) 200 pM, 0.375 μM PD134,308 present, 150 minutes at 21±3° C.; for Ki: read-out: CCKA pKi (converted). As to the method:
The compounds of the examples were also tested in a CCKA binding assay as follows:
The pancreatata were removed from male guinea-pigs (200-300 g; Dunkin Hartley) and placed in ice-cold HEPES buffer (pH 7.2@21 ±3° C.). The pancreatata were homogenised in 40 ml ice-cold HEPES buffer using a polytron (Brinkman, PT10, setting 10) 4×1 second. The homogenate was centrifuged at 39,800 g for 15 min at 4° C. The supernatant was discarded and the pellet re-suspended using a Teflon-in-glass homogeniser in 20 volumes of fresh buffer and re-centrifuged as above. The final pellet was re-suspended using a Teflon-in-glass homogeniser to a tissue concentration of 1 mg.ml^-1 (original wet weight), and filtered through 500 μm pore-size Nytex mesh.
The membranes (400 μl; containing 0.375 μM PD134,308) are incubated for 150 minutes at 21±3° C. in a final volume of 0.5 ml with HEPES buffer containing [^125 I]-CCK8 (S) (50 μl; 200 pM) and competing compound. Total and non-specific binding of [^125 I]-CCK^8 (S) are defined using 50 μl of buffer and 50 μl of 100 nM L-364,718respectively. The assay is terminated by rapid filtration through pre-soaked Whatman GF/B filters using a Brandell Cell Harvester. The filters were washed (3×3 ml) with ice-cold 50 mM Tris HCl (pH 7.4 at 4° C. and bound radioactivity is determined by counting (1 min) in a gamma counter.

For the molecule `O=C(O)c1cc(NC(=O)[C@H](Cc2ccccc2)NC(=O)c2cc(O)ccc2C(=O)NCC23CC4CC(CC(C4)C2)C3)cc(C(=O)O)c1` [Example 23, 1-(1S-(3,5-dicarboxyphenylamino-carbonyl)-2-phenylethylaminocarbonyl)-2-(1-adamantanemethylamino-carbonyl)-5-hydroxybenzene], at CCKB, the Ki was 316 nM. Also, the Kb on Gastrin was 126 nM.

Turning to `COc1ccc(C(=O)N[C@@H](Cc2ccccc2F)C(=O)Nc2cc(C(=O)O)cc(C(=O)O)c2)c(C(=O)NCC23CC4CC(CC(C4)C2)C3)c1` [Example 28, 1-(1S-(3,5-dicarboxyphenylamino-carbonyl)-2-(2-fluorophenyl)ethylaminocarbonyl)-2-(1-adamantane-methylaminocarbonyl)-4-methoxybenzene], the Ki on CCKB is 15.8 nM. The Kb on Gastrin is 12.6 nM.

Take `O=C(Cc1ccccc1C(=O)NCC12CC3CC(CC(C3)C1)C2)N[C@@H](Cc1ccccc1)C(=O)Nc1cc(C(=O)O)cc(C(=O)O)c1` [Example 8, (1S-(3,5-dicarboxyphenylaminocarbonyl)-2-phenylethylaminocarbonylmethyl)-2-(1-adamantanemethylamino-carbonyl)benzene]: the Ki on CCKB is 158 nM; on CCKA, 3160 nM.

Turning to `O=C(O)c1cc(NC(=O)[C@H](Cc2ccccc2)NC(=O)c2ccccc2C(=O)NCc2cccc3ccccc23)cc(C(=O)O)c1` [Example 5, (1R-(3,5-dicarboxyphenylaminocarbonyl)-2-phenylethylaminocarbonyl)-2-(1-naphthalenemethylaminocarbonyl)-benzene], at CCKB, the “CCKB pKi” value turned out to be 6.3. Further, at CCKA, the “CCKA pKi” value stood at 7.0.

With `COc1ccc(C(=O)NCC23CC4CC(CC(C4)C2)C3)c(C(=O)N[C@@H](Cc2ccccc2F)C(=O)Nc2cc(C(=O)O)cc(C(=O)O)c2)c1` [Example 29, 1-(1S-(3,5-dicarboxyphenylamino-carbonyl)-2-(2-fluorophenyl)ethylaminocarbonyl)-2-(1-adamantane-methylaminocarbonyl)-5-methoxybenzene], the Ki at CCKB is 15.8 nM. Moreover, on Gastrin, the Kb is 1580 nM.

With `O=C(Cc1ccccc1C(=O)N[C@@H](Cc1ccccc1)C(=O)Nc1cc(C(=O)O)cc(C(=O)O)c1)NCC12CC3CC(CC(C3)C1)C2` [Example 9, (1S-(3,5-dicarboxyphenylaminocarbonyl)-2-phenylethylaminocarbonyl)-2-(1-adamantanemethylaminocarbonyl-methyl)benzene], the Ki on CCKB was 251 nM; on CCKA, 3160 nM.

Take `CNc1ccc(C(=O)N[C@@H](Cc2ccccc2)C(=O)Nc2cc(C(=O)O)cc(C(=O)O)c2)c(C(=O)NCC23CC4CC(CC(C4)C2)C3)c1` [Example 24, 1-(1S-(3,5-dicarboxyphenylamino-carbonyl)-2-phenylethylaminocarbonyl)-2-(1-adamantanemethyl-aminocarbonyl)-4-methylaminobenzene]: the Ki on CCKB is 7.94 nM. The Kb at Gastrin is 5.01 nM.

For `O=C(O)c1cc(NC(=O)[C@H](Cc2ccccc2)NC(=O)c2c(F)ccc(F)c2C(=O)NCC23CC4CC(CC(C4)C2)C3)cc(C(=O)O)c1` [Example 22, 1-(1S-(3,5-dicarboxyphenylamino-carbonyl)-2-phenylethylaminocarbonyl)-2-(1-adamantanemethyl-aminocarbonyl)-3,6-difluorobenzene], the “CCKB pKi” value at CCKB was found to be 7.3. Besides, the “Gastrin pKB” value on Gastrin was 7.5.

Take `COc1ccc(C(=O)N[C@@H](Cc2ccccc2)C(=O)Nc2cc(C(=O)O)cc(C(=O)O)c2)c(C(=O)NCC23CC4CC(CC(C4)C2)C3)c1` [Example 18, 1-(1S-(3,5-dicarboxyphenylamino-carbonyl)-2-phenylethylaminocarbonyl)-2-(1-adamantanemethyl-aminocarbonyl)-4-methoxybenzene]: at CCKB, the Ki was 25.1 nM. Besides, the Kb at Gastrin is 31.6 nM.

`CN(C)c1ccc(C(=O)N[C@@H](Cc2ccccc2)C(=O)Nc2cc(C(=O)O)cc(C(=O)O)c2)c(C(=O)NCC23CC4CC(CC(C4)C2)C3)c1` [Example 25, 1-(1S-(3,5-dicarboxyphenylamino-carbonyl)-2-phenylethylaminocarbonyl)-2-(l-adamantanemethyl-aminocarbonyl)-4-dimethylaminobenzene]: at CCKB, the Ki is 1.58 nM. Besides, the Kb at Gastrin was 2.51 nM.
